In patent US7605182B2, “Compounds that selectively bind to membranes of apoptotic cells” (Aposense Ltd., priority 2003, dated 2009):

Test system: apoptotic Jurkat cells
Experiment: Selective binding of NST-892 to apoptotic Jurkat cells; flow-cytometric (FACS) analysis
Assay type: cell-based, human
Details: 500 μM compound, 20 minutes
Description: Cultured Jurkat cells (human […] T cell leukemia cells) were grown in suspension in RPMI medium (Beit-Haemek, Israel), supplemented with 10% of fetal calf serum (FCS), 4 mM of L-glutamine, 1 mM of sodium pyruvate, 1 mM CaCl2 and antibiotics (100 units/ml penicilin; 100 μg/ml streptomycin and 12.5 units/ml of nystatin) Prior to induction of apoptosis, medium was replaced with HBS buffer (10 mM HEPES; 140 mM NaCl, 1 mM CaCl). Apoptosis was then triggered by treatment with anti-Fas Ab (0.1 μg/ml; 2.5 hrs). Both control cells and apoptotic cells were then incubated for 20 minutes with 500 μM of NST-892 dissolved in 0.1 m NaPpi pH=7.4. Subsequently, cells were co-stained with propidium iodide (PI), a marker of membrane disintegration during late phases of cell death, and the selective binding of the NST-892 compounds to control and apoptotic cells was determined by flow cytometric (FACS) analysis using Becton-Dickinson cell sorter and CellQuest software (excitation was at 356 nm and emission was measured at 530 nm).

For CN(C)c1cccc2c(S(=O)(=O)NC(C(=O)O)c3cccc4c(C(N)C(=O)O)cccc34)cccc12 (centres unmarked) [NST-892, Mono Dansyl Naphthalene Diglycine], the “percent of identified early apoptotic events within the population (cells binding NST-892, excluding PI)” value (apoptotic Jurkat cells (anti-Fas Ab 0.1 μg/ml; 2.5 hrs)) was 68.9% and the “percent of identified early apoptotic events within the population (cells binding NST-892, excluding PI)” value (non-treated control Jurkat cells) was 3.3%.
